Experimental data as given in PubChem BioAssay (NCI).
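Following 48 hours of exposure in 96-well plates, responses at five concentrations were used to interpolate endpoints linearly. GI50: concentration for 50% inhibition of growth. The concentration for full growth arrest is given as TGI.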

System: MDA-MB-468 breast
Assay: NCI-60 cell line screen, 48 h

NC1=CC(=O)c2cccnc2C1=O
GI50: 1350 nM
TGI: 3030 nM

COc1cc([C@@H]2c3cc4c(c(O)c3C[C@H]3COC(=O)[C@@H]32)OCO4)cc(OC)c1OC
GI50: 65.7 nM
TGI: 311 nM

CN(C)c1ccc(/C=C/c2ccnc3c(O)cccc23)cc1
GI50: 574 nM
TGI: 3340 nM

Cc1ccc(NC(=O)c2ccc(CN3CCN(C)CC3)cc2)cc1Nc1nccc(-c2cccnc2)n1
GI50: 13900 nM
TGI: 36200 nM

O=C1CC[C@H](N2C(=O)c3cccc4c(Cc5ccc(CN6CCOCC6)cc5)ccc2c34)C(=O)N1
GI50: 2730 nM
TGI: 62500 nM

O=C1/C(=C\c2ccc(F)cc2)CN(C(=O)c2ccccc2)C/C1=C\c1ccc(F)cc1
GI50: 1630 nM
TGI: 3710 nM

Cc1cc(Cl)cc2c(N=Nc3ccc(S(N)(=O)=O)cc3)c(O)[nH]c12
GI50: > 25000 nM
TGI: > 25000 nM

Nc1ccccc1NC(=O)c1ccc(CNc2nccc(-c3cccnc3)n2)cc1
GI50: 496 nM
TGI: 2250 nM

CCN(CC)c1ccc(NC2=C(Cl)C(=O)c3nc(C)ccc3C2=O)cc1
GI50: 1880 nM
TGI: 4050 nM

COC(=O)[C@@H](C)C[C@H](Cc1cn(C)c2ccccc12)NC(=O)c1csc([C@@H](C[C@H](C(C)C)N(C)C(=O)[C@@H](NC(=O)[C@H]2CCCCN2C)C(C)C)OC(C)=O)n1
GI50: 5.85 nM
TGI: > 16700 nM

Cc1ccc(Cl)cc1Nc1nc(C(F)(F)F)ccc1C(=O)N/N=C/c1cccnc1
GI50: 1410 nM
TGI: 10200 nM

CSc1ccc(-c2ccccc(=O)c2O)cc1
GI50: 334 nM
TGI: 4180 nM

COC1=CC(c2ccc[nH]2)=N/C1=C\c1[nH]c(C)c(CC(=O)OCc2ccccc2)c1CCC(=O)OCc1ccccc1
GI50: 510 nM
TGI: 2960 nM

COc1ccc(N=Cc2c(O)ccc3c2oc2cc(Cl)c(O)c(Cl)c23)cc1
GI50: 14200 nM
TGI: 67600 nM

CCOC(=O)c1ccc(Nc2sc(C(=O)c3ccc(Br)cc3)c(N)c2C#N)cc1
GI50: 666 nM
TGI: > 100000 nM

COc1ccc(/C=C(/C(=O)N2CCN(c3ccccc3)CC2)c2cc(OC)c(OC)c(OC)c2)cc1N
GI50: 251 nM
TGI: > 100000 nM

Nc1c(C(=O)c2ccc(-c3cccnc3)cc2)cnn1-c1ccc(F)cc1
GI50: > 25000 nM
TGI: > 25000 nM

O=C(COc1ccc(/C=C2\COc3ccccc3C2=O)cc1)Nc1nccs1
GI50: 2040 nM
TGI: 4730 nM

COc1ccc2sc3cccc(NCCN(C)C)c3c(=O)c2c1
GI50: 2000 nM
TGI: 4500 nM

Cn1cc(C2=C(c3ccccc3[N+](=O)[O-])C(=O)NC2=O)c2ccccc21
GI50: 4080 nM
TGI: 10500 nM

COc1cc2c(c(OC)c1OC)-c1ccc(OC)c(=O)cc1[C@@H](N)CC2
GI50: < 10 nM

COc1cc2nccc(Oc3ccc(NC(=O)NC4CC4)c(Cl)c3)c2cc1C(N)=O
GI50: 12500 nM
TGI: > 80800 nM

CCN(CC)CCNc1ccc(C)c2sc3cc(Cl)ccc3c(=O)c12
GI50: 2070 nM
TGI: 4210 nM

N#Cc1c(NC(=O)NCc2ccccc2)sc2c1CCCC2
GI50: 425 nM
TGI: 11300 nM

CCCCCCCC/C=C/CCCCCCCC1=NC(C)(C)CN1CC(C)O (stereo not given)
GI50: 4870 nM
TGI: 10900 nM

Cc1cc(=O)[nH]c(N/N=C/c2cc(Br)ccc2O)n1
GI50: 460 nM
TGI: 16500 nM

Oc1ccc(CSc2nnc(-c3ccncc3)o2)c2cccnc12
GI50: 2270 nM
TGI: 8640 nM

CCOC(=O)c1ccccc1OC(=O)NNc1ccccc1
GI50: 11100 nM
TGI: > 100000 nM

CSC1=Nc2c(c(C)c(-c3ccccc3)n2CCCN2CCCCC2)C2=NC(=O)C[C@H](C)N12
GI50: 2460 nM
TGI: 9510 nM

NS(=O)(=O)OCC1OC(n2cnc3cncnc32)C(O)C1O (stereo not given)
GI50: 18.9 nM
TGI: 48.5 nM

CC1(C)N=C(N)N=C(N)N1c1ccc(CCCCc2ccccc2)c(Cl)c1
GI50: 19.6 nM
TGI: 1120 nM

CC[C@H](NC(=O)[C@H]1CCCCN1C)C(=O)N(C)[C@H](C[C@@H](OC(C)=O)c1nc(C(=O)N[C@@H](Cc2ccccc2)C[C@H](C)C(=O)O)cs1)C(C)C
GI50: 1.99 nM
TGI: > 14300 nM

CC[C@H]1CN2CCc3cc(OC)c(OC)cc3C2C[C@@H]1CC1NCCc2cc(OC)c(OC)cc21 (stereo not given in full)
GI50: 11.8 nM
TGI: 37.7 nM

C[C@]12CC[C@@H]3c4cc(OC(F)F)c(O)cc4CC[C@H]3[C@@H]1CC[C@@H]2OS(N)(=O)=O
GI50: 504 nM
TGI: 30400 nM

CC(C)(C)N1CCC1CN (stereo not given)
GI50: > 100000 nM
TGI: > 100000 nM

COc1cccc(CCC2CCCN(c3cc(C)nc(N)n3)C2)c1 (stereo not given)
GI50: 180 nM
TGI: 952 nM

C[C@]12CCc3nc(Nc4cccc(O)c4)sc3C1=CC[C@@H]1[C@@H]2CC[C@]2(C)/C(=N\NC(N)=S)CC[C@@H]12
GI50: 1860 nM
TGI: 4230 nM

NCCCNc1nc2ccccc2c2c(=O)c3cc(F)cc(F)c3sc12
GI50: 1710 nM
TGI: 3810 nM

CC[C@@H]1[C@@H](C)O[C@@](O)([C@@H](C)[C@H](O)[C@H](C)[C@H]2OC(=O)/C=C/C=C/[C@H](C)[C@@H]([C@@H](C)[C@@H](O)[C@H](C)[C@@]3(O)C[C@@H](O[C@H]4C[C@@H](O)[C@H](O)C(C)O4)[C@H](CC)[C@@H](C)O3)OC(=O)/C=C/C=C/[C@@H]2C)C[C@H]1O[C@@H]1C[C@@H](O)[C@H](O)C(C)O1 (stereo not given in full)
GI50: 68.8 nM
TGI: 204 nM

Cc1cc(Nc2ccc(OCc3ccccc3)cc2)nc2cc(O)ccc12
GI50: 2590 nM
TGI: 8740 nM

CN1CCC(COc2cnc(-c3cccc(Cn4nc(-c5cccc(C#N)c5)ccc4=O)c3)nc2)CC1
GI50: 1490 nM
TGI: 3230 nM

CCOC(=O)C1=C(C)N=c2s/c(=C\c3ccccc3O)c(=O)n2C1c1ccc(OC)c2ccccc12 (stereo not given)
GI50: 4550 nM
TGI: 21200 nM

C[n+]1c(/C=C/c2c[nH]c3ccccc23)ccc2ccccc21
GI50: 1800 nM
TGI: 13000 nM

C=C(C)[C@@H]1CC[C@]2(COCCC#N)CC[C@]3(C)[C@H](CC[C@@H]4[C@@](C)(CCCNCCC#N)[C@H](C(=C)C)CC[C@]43C)[C@@H]12
GI50: 17300 nM
TGI: > 50000 nM

COc1ccc(C(=O)Nc2ncc(Cc3cccc(Cl)c3)s2)cc1OC
GI50: 307 nM
TGI: > 95900 nM

Cc1cccc(-c2[nH]ncc2-c2ccc3ncccc3n2)n1
GI50: 7340 nM
TGI: > 16500 nM

c1ccc(N2N=C(c3cccc(Nc4ccncc4)c3)CC2c2ccc3c(c2)OCO3)cc1 (stereo not given)
GI50: 1470 nM
TGI: 3000 nM

CCOC(=O)[C@@H](C)C[C@H](Cc1ccccc1)NC(=O)c1nc([C@@H](C[C@H](C(C)C)N(C)C(=O)[C@@H](NC(=O)[C@H]2CCCCN2C)C(C)C)OC(C)=O)sc1CCOCc1ccccc1
GI50: 37.4 nM
TGI: 492 nM
